Measured values from patent US20150105252A1, “SUBSTITUTED PYRAZOLES AS HERBICIDES” (E I DU PONT DE NEMOURS AND COMPANY, priority 2013, published 2015).
Several values for one entry are separate records, joined by “and”; a condition that tells them apart may be missing. Equal entries are not always repeated.

Experiments:
Russian thistle = experiment: Test C preemergence; format: in vivo, Salsola kali; settings: for Plant response rating (scale of 0 to 100), Russian Thistle: Preemergence, 250 g ai/ha; for Russian Thistle plant response rating / Plant response rating, Russian Thistle: preemergence; for Plant response rating, Russian Thistle: 62 g ai/ha, scale 0 to 100, 0 = no effect, 100 = complete control
Text: Seeds of plant species selected from blackgrass (Alopecurus myosuroides), ryegrass, Italian (Italian ryegrass, Lolium multiflorum), wheat (winter wheat, Triticum aestivum), galium (catchweed bedstraw, Galium aparine), corn (Zea mays), crabgrass, large (large crabgrass, Digitaria sanguinalis), foxtail, giant (giant foxtail, Setaria faberii), johnsongrass (Sorghum halepense), lambsquarters (Chenopodium album), morningglory (Ipomoea coccinea), nutsedge, yellow (yellow nutsedge, Cyperus esculentus), pigweed (redroot pigweed, Amaranthus retroflexus), ragweed (common ragweed, Ambrosia elation), soybean (Glycine max), barnyardgrass (Echinochloa crus-galli), oilseed rape (Brassica napus), waterhemp (common waterhemp, Amaranthus rudis), oat, wild (wild oat, Avena fatua), kochia (Kochia scoparia), Surinam grass (Brachiaria decumbens), foxtail, green (green foxtail, Setaria viridis), goosegrass (Eleusine indica), bromegrass, downy (downy bromegrass, Bromus tectorum), nightshade (eastern black nightshade, Solanum ptycanthum), cocklebur (common cocklebur, Xanthium strumarium), cupgrass, woolly (woolly cupgrass, Eriochloa villosa), bermudagrass (Cynodon dactylon), sunflower, (common oilseed sunflower, Helianthus annuus), Russian thistle (Salsola kali), and velvetleaf (Abutilon theophrasti) were planted into a blend of loam soil and sand and treated preemergence with test chemicals formulated in a non-phytotoxic solvent mixture which included a surfactant.
At the same time, plants selected from these crop and weed species and also chickweed (common chickweed, Stellaria media), canarygrass (littleseed canarygrass, Phalaris minor), and deadnettle (henbit deadnettle, Lamium amplexicaule), were planted in pots containing Redi-Earth® planting medium (Scotts Company, 14111 Scottslawn Road, Marysville, Ohio 43041) comprising spaghnum peat moss, vermiculite, wetting agent and starter nutrients and treated with postemergence applications of test chemicals formulated in the same manner. Plants ranged in height from 2 to 18 cm (1- to 4-leaf stage) for postemergence treatments. Treated plants and controls were maintained in a greenhouse for 13 to 15 days, after which time all species were compared to controls and visually evaluated. Plant response ratings, summarized in Table C, are based on a scale of 0 to 100 where 0 is no effect and 100 is complete control. A dash (-) response means no test result.

wild poinsettia = experiment: Test F postemergence; format: in vivo, Euphorbia heterophylla; settings: scale 0 to 100
Text: (§1) Seeds of plant species selected from corn (Zea mays), soybean (Glycine max), velvetleaf (Abutilon theophrasti), lambsquarters (Chenopodium album), wild poinsettia (Euphorbia heterophylla), pigweed, palmer (palmer pigweed, Amaranthus palmeri), common waterhemp (Amaranthus rudis), surinam grass (Brachiaria decumbens), large crabgrass (Digitaria sanguinalis), crabgrass, Brazil (Brazilian crabgrass, Digitaria horizontalis), fall panicum (Panicum dichotomiflorum), giant foxtail (Setaria faberii), green foxtail (Setaria viridis), goosegrass (Eleusine indica), johnsongrass (Sorghum halepense), common ragweed (Ambrosia elation), barnyardgrass (Echinochloa crus-galli), southern sandbur (Cenchrus echinatus), arrowleaf sida (Sida rhombifolia), Italian ryegrass (Lolium multiflorum), dayflower, VA (Virginia (VA) dayflower, Commelina virginica), field bindweed (Convolvulus arvensis), cocklebur (common cocklebur, Xanthium strumarium), morningglory (Ipomoea coccinea), nightshade (eastern black nightshade, Solanum ptycanthum), kochia (Kochia scoparia), yellow nutsedge (Cyperus esculentus), and hairy beggarticks (Bidens pilosa), were planted into a silt loam soil and treated preemergence with test chemicals formulated in a non-phytotoxic solvent mixture which included a surfactant.
(§2) At the same time, plants from these crop and weed species and also horseweed (Canada horseweed, Conyza canadensis), smartweed (ladysthumb smartweed, Polygonum persicaria), waterhemp_RES1, (ALS & Triazine resistant common waterhemp, Amaranthus rudis), and waterhemp_RES2, (ALS & HPPD resistant common waterhemp, Amaranthus rudis) were treated with postemergence applications of test chemicals formulated in the same manner. Plants ranged in height from 2 to 18 cm for postemergence treatments (1- to 4-leaf stage). Treated plants and controls were maintained in a greenhouse for 14 to 21 days, after which time all species were compared to controls and visually evaluated. Plant response ratings, summarized in Table F, are based on a scale of 0 to 100 where 0 is no effect and 100 is complete control. A dash (-) response means no test result.

fall panicum = experiment: Test F postemergence; format: in vivo, Panicum dichotomiflorum; settings: scale 0 to 100
Text: as §1, §2

barnyardgrass = experiment: Test F postemergence; format: in vivo, Echinochloa crus-galli; settings: scale 0 to 100
Text: as §1, §2

southern sandbur = experiment: Test F postemergence; format: in vivo, Cenchrus echinatus; settings: scale 0 to 100
Text: as §1, §2

Italian ryegrass = experiment: Test F postemergence; format: in vivo, Lolium multiflorum; settings: scale 0 to 100
Text: as §1, §2

smartweed = experiment: Test F postemergence; format: in vivo, Polygonum persicaria; settings: scale 0 to 100
Text: as §1, §2

[1] = tested on: waterhemp_RES1 (ALS & Triazine resistant common waterhemp); experiment: Test F postemergence; format: in vivo, Amaranthus rudis; settings: scale 0 to 100
Procedure, shortened: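 Visual rating 0–100 vs untreated controls (0 = no effect, 100 = complete control) after 14–21 d greenhouse. Pre: seeds in silt loam soil. Post: plants 2–18 cm, 1–4 leaf. Formulation: non-phytotoxic solvent mix + surfactant.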

cocklebur = experiment: Test F preemergence; format: in vivo, Xanthium strumarium; settings: scale 0 to 100
Text: as §1, with “surfactant. […]” for “surfactant.”

[2] = 31 g ai/ha, scale 0 to 100 (0 no effect, 100 complete control), 13 to 15 days
[3] = 125 g ai/ha, scale 0 to 100, 0 is no effect, 100 is complete control

SMILES	Plant response rating (scale of 0 to 100), Russian Thistle (Russian thistle)	Russian Thistle plant response rating (Russian thistle; [2])	Plant response rating, Russian Thistle (Russian thistle; 13 to 15 days)	Russian Thistle plant response rating (Russian thistle; [3])	Plant response rating, Wild Poinsettia (wild poinsettia; Postemergence, 16 g ai/ha)	Plant response rating, Wild Poinsettia (wild poinsettia; Postemergence, 31 g ai/ha)	Plant response rating, Wild Poinsettia (wild poinsettia; Postemergence, 125 g ai/ha)	Plant response rating, Fall Panicum (fall panicum; Postemergence, 16 g ai/ha)	Plant response rating, Fall Panicum (fall panicum; Postemergence, 31 g ai/ha)	Plant response rating, Fall Panicum (fall panicum; Postemergence, 125 g ai/ha)	Plant response rating, Barnyardgrass (barnyardgrass; Postemergence, 16 g ai/ha)	Plant response rating, Barnyardgrass (barnyardgrass; Postemergence, 31 g ai/ha)	Plant response rating, Barnyardgrass (barnyardgrass; Postemergence, 125 g ai/ha)	Plant response rating, Southern Sandbur (southern sandbur; Postemergence, 16 g ai/ha)	Plant response rating, Southern Sandbur (southern sandbur; Postemergence, 31 g ai/ha)	Plant response rating, Southern Sandbur (southern sandbur; Postemergence, 125 g ai/ha)	Plant response rating, Italian Ryegrass (Italian ryegrass; Postemergence, 16 g ai/ha)	Plant response rating, Italian Ryegrass (Italian ryegrass; Postemergence, 31 g ai/ha)	Plant response rating, Italian Ryegrass (Italian ryegrass; Postemergence, 125 g ai/ha)	further results
CCc1cc(C(=O)NOC(C)C)nn1Cc1cccc(OC(F)(F)F)c1 [Compound 70]	80	65	75	75	–	–	–	–	–	–	–	–	–	–	–	–	–	–	–	–
CCONC(=O)c1cc(CC)n(Cc2cccc(OC(F)(F)F)c2)n1 [Compound 72]	95	5	90	95	–	–	–	–	–	–	–	–	–	–	–	–	–	–	–	–
CCCNC(=O)c1cc(CC)n(Cc2nc(C(F)(F)F)nn2C)n1 [Compound 109]	–	–	–	–	40	50	70	10	10	20	0	0	30	0	0	10	0	0	15	Plant response rating, Fall Panicum (fall panicum; Postemergence, 250 g ai/ha): 30; Plant response rating, Barnyardgrass (barnyardgrass; Postemergence, 250 g ai/ha): 50; Plant response rating, Southern Sandbur (southern sandbur; Postemergence, 250 g ai/ha): 20; Plant response rating, Italian Ryegrass (Italian ryegrass; Postemergence, 250 g ai/ha): 30; Plant response rating, Smartweed (smartweed; Postemergence, 16 g ai/ha): 20; Plant response rating, Smartweed (smartweed; Postemergence, 31 g ai/ha): 50; Plant response rating, Smartweed (smartweed; Postemergence, 125 g ai/ha): 70; Plant response rating, Smartweed (smartweed; Postemergence, 250 g ai/ha): 80
CCc1cc(-c2ccc(C(F)(F)F)cc2)nn1Cc1ccnc(C(F)(F)F)c1 [Compound 110]	–	–	–	–	70	75	95	10	20	30	20	20	50	20	25	30	20	20	30	Plant response rating, Wild Poinsettia (wild poinsettia; postemergence, 62 g ai/ha): 60 and 80; Plant response rating, Wild Poinsettia (wild poinsettia; postemergence, 8 g ai/ha): 70; Plant response rating, Fall Panicum (fall panicum; postemergence, 62 g ai/ha): 20; Plant response rating, Fall Panicum (fall panicum; postemergence, 8 g ai/ha): 10; Plant response rating, Barnyardgrass (barnyardgrass; postemergence, 8 g ai/ha): 10; Plant response rating, Southern Sandbur (southern sandbur; postemergence, 8 g ai/ha): 20; Plant response rating, Italian Ryegrass (Italian ryegrass; postemergence, 8 g ai/ha): 10; Plant response rating, Smartweed (smartweed; postemergence, 62 g ai/ha): 50; Plant response rating, Waterhemp_RES1 ([1]; Postemergence, 16 g ai/ha): 90; Plant response rating, Waterhemp_RES1 ([1]; Postemergence, 31 g ai/ha): 98; Plant response rating, Waterhemp_RES1 ([1]; Postemergence, 125 g ai/ha): 100; Plant response rating, Waterhemp_RES1 ([1]; postemergence, 62 g ai/ha): 90; Plant response rating, Waterhemp_RES1 ([1]; postemergence, 8 g ai/ha): 85
CCc1cc(C(=O)NCC(F)(F)F)nn1Cc1ccnc(Br)c1 [Compound 224]	–	–	–	–	–	–	–	–	–	–	–	–	–	–	–	–	–	–	–	Plant response rating, Cocklebur (cocklebur; 62 g ai/ha): 0; Plant response rating, Cocklebur (cocklebur; 125 g ai/ha): 0
